Source: ChEMBL document CHEMBL3407345, “Synthesis and biological evaluation of pyridazino[1',6':1,2]pyrido[3,4-b]indolinium and pyridazino[1,6-a]benzimidazolium salts as anti-inflammatory agents” (Eur J Med Chem, 2015)
Activity calls are given as the source filed them. No cut-off for these calls is given here.

Key:
[1] = Toxicity against human THP1 cells assessed as cell viability at 10 uM incubated for 24 hrs by propidium iodide staining based flow cytometry; details: thp-1, 24 h
[2] = Toxicity against LPS-stimulated human THP1 cells assessed as cell viability at 10 uM incubated for 24 hrs by propidium iodide staining based flow cytometry relative to control; set-up: species or system THP-1; details: read-out: Activity
[3] = Anti-inflammatory activity in human THP1 cells assessed as inhibition of LPS-stimulated TNFalpha production at 10 uM incubated for 24 hrs followed by further stimulation with LPS during last 4 hrs by ELISA method; assay type: functional; details: THP-1
[4] = Toxicity against LPS-stimulated human THP1 cells assessed as cell viability at 10 uM incubated for 24 hrs by propidium iodide staining based flow cytometry; details: thp-1, 24 h
[5] = Anti-inflammatory activity in human THP1 cells assessed as inhibition of LPS-stimulated TNFalpha production at 25 uM incubated for 24 hrs followed by further stimulation with LPS during last 4 hrs by ELISA method; assay type: functional; details: THP-1
[6] = Anti-inflammatory activity in human THP1 cells assessed as inhibition of LPS-stimulated TNFalpha production at 1 uM incubated for 24 hrs followed by further stimulation with LPS during last 4 hrs by ELISA method; assay type: functional; details: THP-1
[7] = Anti-inflammatory activity in human THP1 cells assessed as inhibition of LPS-stimulated TNFalpha production at 5 uM incubated for 24 hrs followed by further stimulation with LPS during last 4 hrs by ELISA method; assay type: functional; details: THP-1
[8] = Anti-inflammatory activity in human THP1 cells assessed as inhibition of LPS-stimulated TNFalpha production incubated for 24 hrs followed by further stimulation with LPS during last 4 hrs by ELISA method; assay type: functional, cell-based; details: THP-1
PBMC [9] = test: Anti-inflammatory activity in human PBMC assessed as inhibition of LPS-stimulated TNFalpha production at 0.1 uM incubated for 24 hrs followed by further stimulation with LPS during last 4 hrs by ELISA method; assay type: functional
Homo sapiens [10] = species on record: Homo sapiens; test: Anti-inflammatory activity in human MDDC assessed as inhibition of poly I:C stimulated-TNFalpha production at 1 and 5 uM pre-incubated for 1 hr followed by overnight poly I:C stimulation by ELISA method; assay type: functional
Homo sapiens [11] = species on record: Homo sapiens; test: Anti-inflammatory activity in human MDDC assessed as inhibition of poly I:C stimulated-IL12 production at 1 and 5 uM pre-incubated for 1 hr followed by overnight poly I:C stimulation by cytometric bead array method; assay type: functional
Monocyte [12] = test: Anti-inflammatory activity in CD14 expressing human monocytes assessed as inhibition of LPS-stimulated TNFalpha mRNA expression overnight incubated with 1 uM compound followed by further stimulation with LPS for 2 hrs by quantitative RT-PCR analysis; assay type: functional, cell-based
[13] = Anti-inflammatory activity in CD14 expressing human monocytes assessed as inhibition of LPS-stimulated TNFalpha production at 0.5 uM incubated for 24 hrs followed by further stimulation with LPS during last 4 hrs by ELISA method; assay type: functional; details: Monocyte
[14] = Anti-inflammatory activity in CD14 expressing human monocytes assessed as inhibition of LPS-stimulated TNFalpha production incubated for 24 hrs followed by further stimulation with LPS during last 4 hrs by ELISA method; assay type: functional, cell-based; details: Monocyte
[15] = Anti-inflammatory activity in CD14 expressing human monocytes assessed as inhibition of LPS-stimulated TNFalpha production at 2.5 uM incubated for 24 hrs followed by further stimulation with LPS during last 4 hrs by ELISA method; assay type: functional; details: Monocyte
PBMC [16] = test: Anti-inflammatory activity in human PBMC assessed as inhibition of LPS-stimulated TNFalpha production incubated for 24 hrs followed by further stimulation with LPS during last 4 hrs by ELISA method; assay type: functional, cell-based
[17] = Anti-inflammatory activity in CD14 expressing human monocytes assessed as inhibition of LPS-stimulated TNFalpha production at 1 uM incubated for 24 hrs followed by further stimulation with LPS during last 4 hrs by ELISA method; assay type: functional; details: Monocyte
PBMC [18] = test: Anti-inflammatory activity in human PBMC assessed as inhibition of LPS-stimulated TNFalpha production at 5 uM incubated for 24 hrs followed by further stimulation with LPS during last 4 hrs by ELISA method; assay type: functional
Monocyte [19] = test: Anti-inflammatory activity in human monocytes assessed as inhibition of poly I:C stimulated-IL12 production at 1 and 5 uM pre-incubated for 1 hr followed by overnight poly I:C stimulation by cytometric bead array method; assay type: functional, cell-based
[20] = Anti-inflammatory activity in CD14 expressing human monocytes assessed as inhibition of LPS-stimulated TNFalpha production at 10 uM incubated for 24 hrs followed by further stimulation with LPS during last 4 hrs by ELISA method; assay type: functional; details: Monocyte
Mus musculus = test: Inhibition of LPS-stimulated TNFalpha production in spelnocytes derived from C57BL/6 mouse treated with two doses of compound at 2 mg/kg, ip at interval of 18 hrs measured 4 hrs after second dose by cytometric bead array method; assay type: functional, organism-based; set-up: dose 2 mg/kg
PBMC [21] = test: Anti-inflammatory activity in human PBMC assessed as inhibition of LPS-stimulated TNFalpha production at 10 uM incubated for 24 hrs followed by further stimulation with LPS during last 4 hrs by ELISA method; assay type: functional
[22] = Anti-inflammatory activity in human THP1 cells assessed as inhibition of LPS-stimulated TNFalpha production at 0.1 uM incubated for 24 hrs followed by further stimulation with LPS during last 4 hrs by ELISA method; assay type: functional; details: THP-1
PBMC [23] = test: Anti-inflammatory activity in human PBMC assessed as inhibition of LPS-stimulated TNFalpha production at 1 uM incubated for 24 hrs followed by further stimulation with LPS during last 4 hrs by ELISA method; assay type: functional
Monocyte [24] = test: Anti-inflammatory activity in human monocytes assessed as inhibition of poly I:C stimulated-TNFalpha production at 1 and 5 uM pre-incubated for 1 hr followed by overnight poly I:C stimulation by ELISA method; assay type: functional, cell-based
[25] = Anti-inflammatory activity in human THP1 cells assessed as inhibition of LPS-stimulated TNFalpha production at 100 uM incubated for 24 hrs followed by further stimulation with LPS during last 4 hrs by ELISA method; assay type: functional; details: THP-1
[26] = Anti-inflammatory activity in human THP1 cells assessed as inhibition of LPS-stimulated TNFalpha production at 50 uM incubated for 24 hrs followed by further stimulation with LPS during last 4 hrs by ELISA method; assay type: functional; details: THP-1
[27] = target: T1, Tumor necrosis factor receptor superfamily member 1A (Homo sapiens, UniProt P19438); test: Inhibition of TNFR1 (unknown origin)
T1 sequence (P19438 whole entry): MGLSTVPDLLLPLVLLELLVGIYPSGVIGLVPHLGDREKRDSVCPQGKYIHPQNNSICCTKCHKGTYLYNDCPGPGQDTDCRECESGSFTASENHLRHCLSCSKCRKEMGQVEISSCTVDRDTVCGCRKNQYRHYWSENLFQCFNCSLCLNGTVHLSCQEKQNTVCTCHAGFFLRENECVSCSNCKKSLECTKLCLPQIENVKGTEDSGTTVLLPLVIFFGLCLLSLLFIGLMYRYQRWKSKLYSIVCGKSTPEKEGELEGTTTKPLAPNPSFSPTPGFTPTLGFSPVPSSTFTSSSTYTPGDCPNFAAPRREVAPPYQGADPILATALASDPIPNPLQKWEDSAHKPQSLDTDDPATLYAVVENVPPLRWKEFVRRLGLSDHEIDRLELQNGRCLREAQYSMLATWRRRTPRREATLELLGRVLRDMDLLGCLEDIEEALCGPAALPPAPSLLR

Row | IC50 [8] [µM] | SMILES | Activity [1] | viability at 24 h, 10 µM [2] [%] | inhibition at 10 µM [3] [%] | Activity [4] | inhibition at 25 µM [5] [%] | inhibition at 1 µM [6] [%] | inhibition at 5 µM [7] [%] | further results
1 |  | CN(C)CCC[N+](C)(C)CCCn1c2ccccc2[n+]2nc3c(cc12)-c1cccc2cccc-3c12.[Br-].[Br-] | Non-toxic | 25.3 | 39 | Non-toxic |  |  |  | 
2 |  | CCc1cc2c3[nH]c4ccc(Br)cc4c3cc[n+]2nc1CC.Cc1cc(C)cc(CS(=O)(=O)[O-])c1 | Non-toxic | 3.76 | 89 | Non-toxic |  |  |  | 
3 |  | C#CCCCn1c2cc(OC)ccc2c2cc[n+]3nc4c(cc3c21)-c1cccc2cccc-4c12.Cc1cc(C)cc(CS(=O)(=O)[O-])c1 | Non-toxic | 0 | 94 | Non-toxic |  |  |  | 
4 |  | CCc1cc2c3c(cc[n+]2nc1CC)c1ccc(OCc2ccccc2)cc1n3C(=O)OC(C)(C)C.Cc1cc(C)cc(CS(=O)(=O)[O-])c1 | Non-toxic | 33 | 94 | Non-toxic |  |  |  | 
5 | 9.88 | CCc1cc2c3c(cc[n+]2nc1CC)c1ccc(OC)cc1n3CCCI.[I-] | Non-toxic | 63.3 | 72 | Non-toxic | 79 | 11 | 36 | 
6 |  | Cc1ccc(C2=Cc3ccccc3C3N(C)C(=O)c4ccccc4N23)cc1 (centres undefined) |  |  | 47 |  |  |  |  | 
7 | 9.33 | O=C1NC2c3ccccc3C(=O)N2c2ccccc21 (centres undefined) |  |  |  |  |  |  |  | 
8 |  | CCc1cc2c3c(cc[n+]2nc1CC)c1ccc(OC)cc1n3CCCC#CC#CCCCn1c2cc(OC)ccc2c2cc[n+]3nc(CC)c(CC)cc3c21.Cc1cc(C)cc(CS(=O)(=O)[O-])c1.Cc1cc(C)cc(CS(=O)(=O)[O-])c1 | Non-toxic | 9.54 | 34 | Non-toxic |  |  |  | 
9 | 4.49 | COc1ccc2c(c1)[nH]c1c2cc[n+]2nc(C)c(C)cc12.[Br-] | Non-toxic | 61.3 | 87.8 | Non-toxic |  | 34.9 | 63.4 | inhibition at 0.1 µM (PBMC [9]): 22.7%; inhibition (Homo sapiens [10]): Active; inhibition (Homo sapiens [11]): Active; inhibition (Monocyte [12]): Active; inhibition at 0.5 µM [13]: 28.6%; IC50 [14]: 1.82 µM; inhibition at 2.5 µM [15]: 56.4%; IC50 (PBMC [16]): 3.91 µM; inhibition at 1 µM [17]: 38.1%; inhibition at 5 µM (PBMC [18]): 71.2%; inhibition (Monocyte [19]): Active; inhibition at 10 µM [20]: 95.3%; inhibition (Mus musculus): Active; inhibition at 10 µM (PBMC [21]): 69.2%; inhibition at 0.1 µM [22]: -0.97%; inhibition at 1 µM (PBMC [23]): 38.8%; inhibition (Monocyte [24]): Active
10 |  | C#CCCCn1c2cc(OC)ccc2c2cc[n+]3nc(-c4ccco4)c(-c4ccco4)cc3c21.Cc1cc(C)cc(CS(=O)(=O)[O-])c1 | Non-toxic | 0 | 87 | Non-toxic |  |  |  | 
11 |  | CCc1cc2c3c(cc[n+]2nc1CC)c1ccc(OC)cc1n3CC(=O)O.Cc1cc(C)cc(CS(=O)(=O)[O-])c1 | Non-toxic | 93 | 38 | Non-toxic | 29 |  |  | inhibition at 100 µM [25]: 40%; inhibition at 50 µM [26]: 35%
12 |  | Cc1cc2occ(CN(C)CCN(C)Cc3cn(-c4cccc(C(F)(F)F)c4)c4ccccc34)c(=O)c2cc1C |  |  |  |  |  |  |  | IC50 [27]: 22 µM
13 | 11.5 | CCOC(=O)Cn1c2cc(OC)ccc2c2cc[n+]3nc(CC)c(CC)cc3c21.Cc1cc(C)cc(CS(=O)(=O)[O-])c1 | Non-toxic | 89.7 | 45 | Non-toxic | 94 | 51 | 67 | 
14 | 39.2 | Cc1cc(C)cc(CS(=O)(=O)[O-])c1.O=C(O)CCCn1c2ccccc2[n+]2nc3c(cc12)-c1cccc2cccc-3c12 | Non-toxic | 86 | 19 | Non-toxic | 47 |  |  | inhibition at 100 µM [25]: 85%; inhibition at 50 µM [26]: 70%
15 | 14.6 | Cc1cc(C)cc(CS(=O)(=O)[O-])c1.O=C(O)Cn1c2ccccc2[n+]2nc3c(cc12)-c1cccc2cccc-3c12 | Non-toxic | 69.9 | 45 | Non-toxic | 84 | 12 | 7 | inhibition at 0.1 µM [22]: 9%
16 |  | CCc1cc2c3[nH]c4c([N+](=O)[O-])cccc4c3cc[n+]2nc1CC.Cc1cc(C)cc(CS(=O)(=O)[O-])c1 | Non-toxic | 79.4 | 29 | Non-toxic | 47 | 44 | 56 | 
17 |  | CCc1cc2c3[nH]c4c(N)cccc4c3cc[n+]2nc1CC.Cl.Cl | Non-toxic | 65 | 88 | Non-toxic |  | 13.3 | -13.4 | 
